Laboratory results from PubChem BioAssay AID1918939 (Molecular Pharmacology Branch, DTP, NCI, 2023).

System: 653999-131-R-J2-PDC complex spheroid viability
Experiment: Anticancer human tumor 653999-131-R-J2-PDC patient-derived lung adenocarcinoma cell line growth inhibition
Conditions: for IC50: curve of first compound; for viability, T/C: stronger effect = lower value
Description: Multicellular complex tumor spheroid response to LSD1 Inhibitor Iadademstat in combination with a variety of drugs and investigational agents in selected tumor cell lines
The current study was undertaken to assess response to LSD1 inhibitors in combination with standard-of-care drugs and investigational agents in solid tumor complex spheroid models as well as in the K-562 leukemia. Complex spheroids include a stromal component modeled by human endothelial cells (HUVEC) and fibroblasts modeled by human mesenchymal stem cells (MSCs). The concentration ranges selected for each drug and investigational agent were based upon clinically achievable concentrations if the clinical Cmax of the agent was known.
Compounds. The drugs and investigational agents used in this study are listed on Table 1. All of the agents used, including staurosporine (NSC755774) and gemcitabine (NSC613327), were obtained from the Developmental Therapeutics Program, NCI. FDA-approved anticancer drugs are available from the NCI at http://dtp.nci.nih.gov/branches/dscb/oncology_drugset_explanation.html. Drugs and investigational agents were >95% pure by proton nuclear magnetic resonance (NMR) and liquid chromatography/mass spectrometry (LC/MS). Stock solutions were prepared at 400x in DMSO, stored at -70 degrees C, and diluted in fresh medium prior to their use. The final concentration of DMSO in cell culture wells never exceeded 0.25% (v/v). The FDA-approved anticancer drug set is available from the Developmental Therapeutics Program at https://dtp.cancer.gov/organization/dscb/obtaining/available_plates.htm. All drugs and investigational agents were tested over a range starting from a high concentration at or near the clinical Cmax and decreasing in half-log increments. If the clinical Cmax for an agent had not been determined, the highest concentration tested was 10 microM.
Cell Lines. The patient-derived cancer cell (PDC) lines: 292921-168-R-J2-PDC, K24384-001-R-PDC, and 521955-158-R2-J5-PDC pancreatic carcinomas, 556581-035-R-J1 ovarian carcinoma, 324938-238-R-J1-PDC, 855422-203-R-J1-PDC and 883617-216-R-J1-PDC urothelial bladder carcinomas, 743489-274-T-PDC renal cell carcinoma, 138582-R-J1 Merkel cell tumor, K60290-347-R-J1 and K57222-313-R-J1-PDC glioblastomas, 653999-131-R-J2-PDC, LG0703-F948-PDC, and 349418-098-R-PDC non-small cell lung carcinomas, 885512-296-R-J2-PDC, 171881-019-R-J1-PDC breast carcinomas and 186277-243-T-J2-PDC and 233499-124-R-J2-PDC colon carcinomas were obtained from the NCI Patient-Derived Models Repository (PDMR, https://pdmr.cancer.gov). The established cell lines NCI/ADR-RES (RRID:CVCL_14520 and OVCAR-5 (RRID:CVCL_1628) ovarian carcinomas, 786-O (RRID:CVCL_1051) and A498 (RRID:CVCL_A498) renal cell carcinoma, NCI-H211 (ATCC, cat. CRL-5824; RRID:CVCL_1529), NCI-H196 (ATCC, cat. CRL-5823, RRID:CVCL_1509), SW 1271 (ATCC, cat. CRL-2177, RRID:CVCL_1716) and NCI-H1876 (ATCC, cat. CRL-5902, RRID:CVCL_1503) small cell lung carcinomas, MDA-MB-231 (RRID:CVCL_0062) and MDA-MB-468 (RRID:CVCL_0419)breast carcinomas (10-12). Pooled donor human umbilical vein endothelial cells (HUVEC, Lonza, cat. CC-2519) and human mesenchymal stem cells (hMSC, Lonza, cat. PT-2501) were purchased from Lonza (Walkersville, MD).
Cell Culture. All cells were maintained in an incubator at 37 degrees C and 5% CO2 with 95% humidity. The PDC lines were cultured according to standard operating procedures established by the NCI PDMR (https://pdmr.cancer.gov). Briefly all PDCs were thawed and cultured in Matrigel-coated flasks prepared with a working solution of 1X Ham's F-12 nutrient mix, without supplementation (Invitrogen, Waltham, MA, cat. 11765054), 100 U/mL penicillin-streptomycin (Invitrogen, cat. 15140122), and 2.5% Matrigel (Corning Inc., Corning, NY, cat. 354248) for the first three passages. […]
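Also: spheroids exposed to agents for seven days before readout.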

## CCc1c2c(nc3ccc(O)cc13)-c1cc3c(c(=O)n1C2)COC(=O)[C@]3(O)CC + NC1CC1c1ccc(-c2cccc(O)c2)cc1
Second compound 0.1 µM
  IC50: < 0.949 nM
Second compound 0.316 µM
  IC50: < 0.949 nM
Second compound 1 µM
  IC50: < 0.949 nM
Second compound 3.16 µM
  IC50: < 0.949 nM
Second compound 10 µM
  IC50: < 0.949 nM
Second compound 0.1 µM, first compound 0.000949 µM
  viability, T/C: 27.2%
Second compound 0.1 µM, first compound 0.003 µM
  viability, T/C: 18%
Second compound 0.1 µM, first compound 0.00949 µM
  viability, T/C: 11.7%
Second compound 0.1 µM, first compound 0.03 µM
  viability, T/C: 5.92%
Second compound 0.1 µM, first compound 0.0949 µM
  viability, T/C: 6.24%
Second compound 0.1 µM, first compound 0.3 µM
  viability, T/C: 9.54%
Second compound 0.316 µM, first compound 0.000949 µM
  viability, T/C: 27.7%
Second compound 0.316 µM, first compound 0.003 µM
  viability, T/C: 21%
Second compound 0.316 µM, first compound 0.00949 µM
  viability, T/C: 11.2%
Second compound 0.316 µM, first compound 0.03 µM
  viability, T/C: 5.65%
Second compound 0.316 µM, first compound 0.0949 µM
  viability, T/C: 6.29%
Second compound 0.316 µM, first compound 0.3 µM
  viability, T/C: 9.28%
Second compound 1 µM, first compound 0.000949 µM
  viability, T/C: 25.6%
Second compound 1 µM, first compound 0.003 µM
  viability, T/C: 19.9%
Second compound 1 µM, first compound 0.00949 µM
  viability, T/C: 10.6%
Second compound 1 µM, first compound 0.03 µM
  viability, T/C: 5.85%
Second compound 1 µM, first compound 0.0949 µM
  viability, T/C: 6.63%
Second compound 1 µM, first compound 0.3 µM
  viability, T/C: 10.5%
Second compound 3.16 µM, first compound 0.000949 µM
  viability, T/C: 21.4%
Second compound 3.16 µM, first compound 0.003 µM
  viability, T/C: 17.2%
Second compound 3.16 µM, first compound 0.00949 µM
  viability, T/C: 10.3%
Second compound 3.16 µM, first compound 0.03 µM
  viability, T/C: 5.97%
Second compound 3.16 µM, first compound 0.0949 µM
  viability, T/C: 7.51%
Second compound 3.16 µM, first compound 0.3 µM
  viability, T/C: 9.23%
Second compound 10 µM, first compound 0.000949 µM
  viability, T/C: 23.3%
Second compound 10 µM, first compound 0.003 µM
  viability, T/C: 13.5%
Second compound 10 µM, first compound 0.00949 µM
  viability, T/C: 12.3%
Second compound 10 µM, first compound 0.03 µM
  viability, T/C: 6.19%
Second compound 10 µM, first compound 0.0949 µM
  viability, T/C: 4.83%
Second compound 10 µM, first compound 0.3 µM
  viability, T/C: 9.59%
